This is an account of results in US20260125346A1, “Isoquinolinone Derivatives and 4H-Quinolizinone Derivatives and Pharmaceutical Compositions Thereof for the Treatment of Disease” (BeOne Medicines I GmbH, priority 2023, published 2026).

A value given as a limit tells only on which side of the number the result lay.

Test [1] has as its target PI3Kα (p110/p85) kinase (wild type, "WT") (Homo sapiens, UniProt P42336). In words: PI3Kα (p110/p85) kinase ADP-Glo Assay. Format: biochemical. The settings on record: 25 uM ATP. In a few lines:
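Wild-type PI3Kα p110/p85 preincubated 30 min at RT with PI(4,5)P2:PS substrate ([…]) and compound ([…]) in HEPES pH7.5 buffer with MgCl2, DTT and BSA; reaction started with 25 µM ATP for 120 min at RT. ADP measured by ADP-Glo luminescence; IC50 from four-parameter logistic fit.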
On the technique in general: ADP-Glo turns the ADP formed in a reaction into a luminescent signal.

Test [2] deals with PI3Kα (p110[H1047R]/p85) kinase (Homo sapiens, UniProt P42336, H1047R). In words: PI3Kα (p110[H1047R]/p85) kinase ADP-Glo Assay. The settings on record: 25 uM ATP; for selectivity: WT/H1047R: ADP-Glo Assay IC50 ratio. Format: biochemical. In a few lines:
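PI3Kα H1047R/p85 pre-incubated 30 min at room temperature with PI(4,5)P2:PS substrate ([…]) and compound ([…]) in HEPES pH 7.5 buffer with MgCl2; ATP ([…]) then added for 120 min. ADP quantified by ADP-Glo luminescence; IC50 from four-parameter logistic fit.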

Another test concerns WT cell line SK-BR-3. Kind of test: Cell Proliferation Assay (CellTiter-Glo), SK-BR-3. Format: cell-based. The settings on record: Homo sapiens, 72 h; SK-BR-3, 3 days treatment. In a few lines:
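SK-BR-3 cells treated for 3 days with compound in a 9-point series, final concentrations 10 M to 1 nM in 0.1% DMSO. Viability read by CellTiter-Glo luminescence. Relative IC50 from percent inhibition versus medium-only and DMSO controls, four-parameter logistic fit.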

Sequence of PI3Kα (p110[H1047R]/p85) kinase (P42336 whole entry H1047R): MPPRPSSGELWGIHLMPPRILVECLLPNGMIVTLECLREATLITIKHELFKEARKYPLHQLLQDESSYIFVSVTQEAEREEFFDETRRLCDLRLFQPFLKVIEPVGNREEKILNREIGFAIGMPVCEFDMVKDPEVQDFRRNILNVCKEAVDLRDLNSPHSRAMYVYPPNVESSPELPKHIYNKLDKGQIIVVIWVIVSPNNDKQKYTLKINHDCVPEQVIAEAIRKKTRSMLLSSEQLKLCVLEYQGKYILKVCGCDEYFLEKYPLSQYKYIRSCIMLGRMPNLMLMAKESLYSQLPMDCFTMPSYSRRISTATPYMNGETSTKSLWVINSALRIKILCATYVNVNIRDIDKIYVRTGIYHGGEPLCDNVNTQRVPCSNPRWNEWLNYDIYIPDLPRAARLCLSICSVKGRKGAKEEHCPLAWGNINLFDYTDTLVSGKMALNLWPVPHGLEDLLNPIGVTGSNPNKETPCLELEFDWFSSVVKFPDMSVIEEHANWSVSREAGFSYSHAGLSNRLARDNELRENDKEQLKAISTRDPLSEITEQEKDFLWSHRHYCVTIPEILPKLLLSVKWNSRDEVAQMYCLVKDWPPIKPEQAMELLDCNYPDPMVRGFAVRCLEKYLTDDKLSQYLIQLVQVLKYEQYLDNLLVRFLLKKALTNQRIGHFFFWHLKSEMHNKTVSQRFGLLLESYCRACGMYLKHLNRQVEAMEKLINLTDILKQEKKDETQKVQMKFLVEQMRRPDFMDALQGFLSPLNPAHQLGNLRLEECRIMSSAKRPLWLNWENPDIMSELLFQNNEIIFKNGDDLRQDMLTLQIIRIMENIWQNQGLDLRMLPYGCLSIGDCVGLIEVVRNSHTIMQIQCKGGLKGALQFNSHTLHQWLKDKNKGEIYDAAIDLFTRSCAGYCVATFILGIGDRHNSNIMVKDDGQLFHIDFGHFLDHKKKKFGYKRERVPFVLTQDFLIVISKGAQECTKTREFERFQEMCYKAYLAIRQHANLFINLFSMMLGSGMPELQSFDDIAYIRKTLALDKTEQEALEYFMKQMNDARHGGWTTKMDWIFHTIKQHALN
Sequence of PI3Kα (p110[H1047R]/p85) kinase (P27986 whole entry partner): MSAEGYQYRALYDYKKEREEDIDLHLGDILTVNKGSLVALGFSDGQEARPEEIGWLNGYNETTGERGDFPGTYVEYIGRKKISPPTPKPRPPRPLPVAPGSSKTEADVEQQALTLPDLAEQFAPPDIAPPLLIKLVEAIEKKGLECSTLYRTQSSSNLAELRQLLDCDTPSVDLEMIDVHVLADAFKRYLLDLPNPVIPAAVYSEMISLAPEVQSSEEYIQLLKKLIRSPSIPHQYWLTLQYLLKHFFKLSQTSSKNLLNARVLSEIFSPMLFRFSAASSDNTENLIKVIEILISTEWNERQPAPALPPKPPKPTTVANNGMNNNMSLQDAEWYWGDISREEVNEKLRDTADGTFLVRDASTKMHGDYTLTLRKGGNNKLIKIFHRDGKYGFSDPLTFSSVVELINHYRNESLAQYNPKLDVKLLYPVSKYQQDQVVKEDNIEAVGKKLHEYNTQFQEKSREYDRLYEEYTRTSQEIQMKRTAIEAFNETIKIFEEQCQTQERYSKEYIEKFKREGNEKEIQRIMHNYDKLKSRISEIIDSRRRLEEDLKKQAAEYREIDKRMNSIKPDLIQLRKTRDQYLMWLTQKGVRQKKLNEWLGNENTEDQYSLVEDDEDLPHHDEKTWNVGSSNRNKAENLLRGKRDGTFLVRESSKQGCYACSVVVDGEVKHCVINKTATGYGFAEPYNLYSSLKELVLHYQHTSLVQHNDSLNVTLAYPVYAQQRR
Sequence of PI3Kα (p110/p85) kinase (wild type, "WT") (P42336 whole entry): as the sequence (P42336 whole entry H1047R) above, with R1047H counted along it
Sequence of PI3Kα (p110/p85) kinase (wild type, "WT") (P27986 whole entry partner): as the sequence (P27986 whole entry partner) above

`Cc1cc(C(C)Nc2ccccc2C(=O)O)c2cc(-c3ccc(C#N)cc3)n(C)c(=O)c2c1` (stereo not drawn) [Example 4, 2-((1-(3-(4-cyanophenyl)-2,7-dimethyl-1-oxo-1,2-dihydroisoquinolin-5-yl)ethyl)amino)benzoic acid]: the IC50 in test [1] was 3.87 µM; in test [2], 0.443 µM; in the test with WT cell line SK-BR-3, more than 10 µM. Moreover, the “selectivity: WT/H1047R” value in test [2] came out at 8.7.
On to `Cc1cc(C(C)Nc2ccccc2C(=O)O)c2cc(-c3cnn(C)c3)n(C)c(=O)c2c1` (stereo not drawn) [Example 91, 2-((1-(2,7-dimethyl-3-(1-methyl-1H-pyrazol-4-yl)-1-oxo-1,2-dihydroisoquinolin-5-yl)ethyl)amino)benzoic acid], for which the IC50 in test [1] was 9.82 µM; in test [2], 0.24 µM; in the test with WT cell line SK-BR-3, more than 10 µM. In addition, the “selectivity: WT/H1047R” value in test [2] was 40.9.
Take `Cc1cc(C(C)Nc2sc3ccccc3c2C(=O)O)c2cc(-c3ccccc3)n(C)c(=O)c2c1` (stereo not drawn) [Example 92, 2-((1-(2,7-dimethyl-1-oxo-3-phenyl-1,2-dihydroisoquinolin-5-yl)ethyl)amino)benzo[b]thiophene-3-carboxylic acid]: the IC50 was more than 100 µM in test [1], 0.887 µM in test [2] and more than 10 µM in the test on WT cell line SK-BR-3. Also, in test [2], the “selectivity: WT/H1047R” value is more than 113.

Usually IC50 stands for the midpoint of a concentration-inhibition curve. High values mean a need for much substance, low ones inhibition by little substance.
